According to patent US10604487B2, “Pyridinol derivative or pharmaceutically acceptable salt thereof, and pharmaceutical composition containing same as active ingredient” (Research Cooperation Foundation of Yeungnam University, priority 2016, dated 2020):
Like-named read-outs stand apart in the source and are kept apart here.

Experiments:
[1] = Cytotoxicity test (MTT), HT-29; assay type: cell-based; details: human, HT-29, 48 h; for viability at 48 h, 0.01 µM / viability at 48 h, 0.1 µM / viability at 48 h, 1 µM / viability at 48 h, 10 µM / viability at 48 h, 100 µM: HT-29 cells (colorectal cancer cell line), read-out: Cell viability (% of control); for IC50 at 48 h: HT-29 cells, read-out: IC50 (μM), cytotoxicity
Description: (§1) The human colorectal cancer cell line HT-29 and the monocytic blood cancer-derived cell line U937 were cultured in a RPMI 1640 medium containing 10% FBS and 1% penicillin/streptomycin (PS) at 37° C. under a condition of 5% CO2, and when the cells used herein were grown to 80% or more, they were subcultured at a ratio of 1:3.
(§2) Each type of cells were cultured in a 96 well plate at a concentration of 1×10^5 cells/cm2, treated with a test compound by concentration in a medium only containing 1% FBS and 1% PS at 37° C. under a condition of 5% CO2 for 48 hours and reacted with 5 mg/mL of a 3-[4,5-dimethylthiazol-2-yl]-2,5-diphenyltetrazolium bromide (MTT) reagent for 4 hours, and then the medium was completely removed, the cells were treated with DMSO, formazan crystals were dissolved for 30 minutes, and then absorbance was measured at 540 nm.

[2] = tested on: TNBS-induced colitis; test: In vivo efficacy of oral administration in TNBS-induced inflammatory bowel disease model; set-up: species or system Sprague Dawley rats; details: rat; for Body weight recovery rate (%) / Bowel weight recovery rate (%): oral, 5 days
Description: 7 to 8-week-old Sprague Dawley rats were purchased from Orient Bio Korea, and after stabilization with typical solid feed for 3 days, were used as animals for the experiment. The animals were freely supplied with feed and water during the experiment, and a cage was maintained at a temperature of 25±1° C. and a relative humidity of 50±10%. Lighting was adjusted to a 12-hour light-dark cycle using an automatic lightening system. In regard to experimental groups, there were 5 groups each consisting of 6 rats having an average weight of 180±10 g (a control group, a group administered TNBS only, a group administered TNBS+300 mg/kg of sulfasalazine, a group administered TNBS+10 mg/kg of GLPG, and a group administered TNBS+1 mg/kg of test drug), which were divided according to a randomized block design.
After rats that had been fasting for 24 hours were anesthetized with diethyl ether, a 1 mL syringe connected with a polyethylene catheter was used to slowly inject 0.8 mL of 5% TNBS diluted with 50v/v % ethanol into the lumen of a colon, and then the rats turned upside down and kept upright for 60 seconds to prevent the leakage of 5% TNBS from the anus. In the control group, only a vehicle [50 v/v % ethanol] was injected in the same manner as in the other groups (Thapa et al., 2008).
To examine a drug effect, for 5 days from the day following the TNBS treatment, a drug was administered at a predetermined time every day.
A change in the body weights of the rats was observed using a digital mass meter from the fasting stage to the end of the TNBS administration and drug administration processes.
The colon of each rat was extracted and tissue 5 to 6 cm from the anus was cut into 1-cm pieces, and then the weight of the tissue was measured.

[3] = Cytotoxicity test (MTT), U937; assay type: cell-based; details: human, U937, 48 h; for viability at 48 h, 0.01 µM / viability at 48 h, 0.1 µM / viability at 48 h, 1 µM / viability at 48 h, 10 µM / viability at 48 h, 100 µM: U937 cells (monocytic blood cancer-derived cell line), read-out: Cell viability (% of control); for IC50 at 48 h: U937 cells
Description: as §1, §2

[4] = tested on: TNF-α-induced adhesion of monocytes to intestinal epithelial cells; test: Inhibitory activity against TNF-α-induced adhesion of monocytes (U937) to intestinal epithelial cells (HT-29); assay type: cell-based, human; details: for inhibition at 1 µM / IC50: Homo sapiens; for IC50: TNF-α-induced, read-out: IC50 (adhesion inhibition)
Description: HT-29 human colorectal cancer-derived epithelial cells and U937 human-derived monocytic cells were cultured in an RPMI 1640 medium containing 10% FBS and 1% penicillin/streptomycin (PS) at 37° C. under a condition of 5% CO2, and when the cells were grown to 80% or more in a culture flask, they were subcultured in a ratio of 1:3 to be used in this test. The HT-29 cells were cultured in a 24-well plate at a concentration of 2×10^5 cells/cm2, and then the medium only containing 1% FBS and 1% PS was pretreated with a test drug for 1 hour. Afterward, BCECF-loaded U937 cells by being treated with 10 μg/mL of BCECF-AM at 37° C. for 30 minutes and 10 ng/mL of TNF-α reacted with the HT-29 cells previously treated with the test drug at 37° C. for 3 hours. After the reaction, the medium was removed, and then the cells were washed with PBS twice to remove U937 cells that were not adhered. In a subsequent step, for cell lysis, 0.1% Triton X-100 (0.1 M Tris) was treated to allow a reaction at room temperature for 30 minutes, and then fluorescence was measured using a Fluostar optima microplate reader (BMG LABTECH, Germany) to quantify the cells (Carvalho et al., 1996; Thapa et al., 2008).

[5] = 1 μM, Table 8, read-out: 1 μM concentration inhibitory activity
[6] = 1 μM test drug, HT-29/U937 adhesion, 10 ng/mL TNF-α, read-out: Inhibitory activity (%)
[7] = 1 μM test drug, HT-29/U937 adhesion, 10 ng/mL TNF-α

SMILES	viability at 48 h, 0.01 µM [1] [%]	viability at 48 h, 0.1 µM [1] [%]	viability at 48 h, 1 µM [1] [%]	viability at 48 h, 10 µM [1] [%]	viability at 48 h, 100 µM [1] [%]	IC50 at 48 h [1] [µM]	Body weight recovery rate (%) ([2]; 1 mg/kg)	Bowel weight recovery rate (%) ([2]; 1 mg/kg)	viability at 48 h, 0.01 µM [3] [%]	viability at 48 h, 0.1 µM [3] [%]	viability at 48 h, 1 µM [3] [%]	viability at 48 h, 10 µM [3] [%]	viability at 48 h, 100 µM [3] [%]	IC50 at 48 h [3] [µM]	inhibition at 1 µM [4, 6] [%]	also measured
Cc1nc(NC(=O)Nc2ccccc2)c(C)c(C)c1O [Compound 16-2, 1-(5-hydroxy-3,4,6-trimethylpyridin-2-yl)-3-phenylurea]	103 ± 1.9	103 ± 1.6	103 ± 3.5	93.4 ± 7.2	65.2 ± 6.6	> 100	69.0	81.6	89.9 ± 2.6	88.9 ± 1.9	87.1 ± 2	81.7 ± 2	78 ± 0.6	> 100		inhibition at 1 µM [4, 5]: 76.3%; IC50 ([4]; HT-29/U937 adhesion): 410 nM
Cc1nc(NC(=S)NC(C)C)c(C)c(C)c1O [Compound 18-2, 1-(5-hydroxy-3,4,6-trimethylpyridin-2-yl)-3-isopropylthiourea]	87.6 ± 4.8	87.3 ± 2.1	88.4 ± 4.2	87.6 ± 5.3	88.6 ± 1.3	> 100	72.0	81.6	97 ± 3.5	99.4 ± 3.9	99.1 ± 1.4	90.8 ± 2.2	63.6 ± 0.8	> 100	≥ 50	
Cc1nc(NC(=S)Nc2ccc(Cl)c(Cl)c2)c(C)c(C)c1O [Compound 18-8, 1-(3,4-dichlorophenyl)-3-(5-hydroxy-3,4,6-trimethylpyridin-2-yl)thiourea]							72.4	84.6								Inhibitory activity (%) [4, 7]: 87.2%
Cc1nc(NC(=S)Nc2cccc(C(F)(F)F)c2)c(C)c(C)c1O [Compound 18-9, 1-(5-Hydroxy-3,4,6-trimethylpyridin-2-yl)-3-(3-(trifluoromethyl)phenyl)thiourea]							74.9	87.2								Inhibitory activity (%) [4, 7]: 93.0%
Cc1nc(NC(=S)NC(=O)c2ccccc2)c(C)c(C)c1O [Compound 18-13, N-((5-Hydroxy-3,4,6-trimethylpyridin-2-yl)carbamothioyl)benzamide]	78.8 ± 3.3	75.4 ± 1.3	75.4 ± 4.1	57.9 ± 5.8	36.4 ± 6.1	19.1	93.8	94.9	99.9 ± 1.3	96.8 ± 1.8	91.7 ± 3.6	79 ± 0.8	60.6 ± 0.5	> 100	≥ 50	
COCCOC(=O)Nc1nc(C)c(O)c(C)c1C [Compound 20-5, 2-methoxyethyl (5-hydroxy-3,4,6-trimethylpyridin-2-yl)carbamate]	89.7 ± 1.2	83.2 ± 2.6	84.7 ± 1.6	85.5 ± 3.3	82.3 ± 1.1	> 100			85.4 ± 4.4	84.2 ± 4.1	81.2 ± 0.7	79.9 ± 0.8	77.9 ± 0.8	> 100	-22.5	
Cc1nc(NS(C)(=O)=O)c(C)c(C)c1O [Compound 22-1, N-(5-hydroxy-3,4,6-trimethylpyridin-2-yl)methanesulfonamide]	87.6 ± 3.3	75.7 ± 8.2	76.1 ± 3.6	63.5 ± 1.8	43 ± 1.9	50.1			97.6 ± 5	94.8 ± 3.8	95.7 ± 2.4	94.4 ± 0.4	94.4 ± 2.5	> 100	18.7	
Cc1ccc(S(=O)(=O)Nc2nc(C)c(O)c(C)c2C)cc1 [Compound 22-2, N-(5-hydroxy-3,4,6-trimethylpyridin-2-yl)-4-methylbenzenesulfonamide]	77.1 ± 3	76.9 ± 4	73.8 ± 5.8	71.5 ± 4.6	62.8 ± 0.5	> 100			96.6 ± 1.6	94.5 ± 6.3	96.1 ± 3.8	90.5 ± 1.7	60.9 ± 1.7	> 100	42.1	
Cc1nc(NS(=O)(=O)c2ccc([N+](=O)[O-])cc2)c(C)c(C)c1O [Compound 22-4, N-(5-hydroxy-3,4,6-trimethylpyridin-2-yl)-4-nitrobenzenesulfonamide]	96.6 ± 1.3	97.8 ± 2.4	96.3 ± 1.7	85.4 ± 6.7	64.8 ± 7.1	> 100			95.2 ± 4.6	93.3 ± 0.8	80.2 ± 11.7	84.7 ± 1.7	70.6 ± 0.4	> 100	-2.3	
Cc1nc(NS(=O)(=O)c2cccc3ccccc23)c(C)c(C)c1O [Compound 22-5, N-(5-hydroxy-3,4,6-trimethylpyridin-2-yl)naphthalene-1-sulfonamide]	95.2 ± 3.3	86.7 ± 6.5	87.8 ± 3.2	89.1 ± 3.5	88.8 ± 1.2	> 100			102 ± 5.4	93.4 ± 1.2	92.6 ± 0.9	85.1 ± 3.1	62.5 ± 2	> 100		inhibition at 1 µM [4, 5]: 80.6%; IC50 ([4]; HT-29/U937 adhesion): 230 nM
O=C(O)c1cc(/N=N/c2ccc(S(=O)(=O)Nc3ccccn3)cc2)ccc1O [Sulfasalazine, reference compound]																Morphology observation of colon (visual symptoms, adhesion between organs, intestinal hyperemia) ([2]; 300 mg/kg, after 5-day administration): considerably inhibited; Body weight recovery rate (%) ([2]; 300 mg/kg): 50.5%; Bowel weight recovery rate (%) ([2]; 300 mg/kg): 69.6%
